# Read-outs that look alike come from different tables or passages of the source.
# Columns and labels:
# H460 cells = assay: Inhibition of H460 cancer cell proliferation (CTG, 72 h); format: cell-based; conditions: Homo sapiens, NCI-H460
# Method: (§1) If not otherwise specified, IC50 values were measured by the following experimental methods:
# c) The cell suspension was added to 96-well plate with 100 μL per well and 2000 cells/well of cell density.
# (§2) a) Cells were plated for 24 hours, and then the compounds acted singly. 99 μL of growth medium was supplemented per well, and then 1 μL of 200× compound was added, gently shaken to ensure uniform mixing, and then placed in a 37° C., 5% CO2 incubator.
# (§3) b) The cell plate was placed in the incubator for 72 hours.
# (§4) b) 100 μL of CTG reagent (CelltiterGlo kit) was added to each well, the plate was placed in a rapid oscillator and shaken for 2 minutes, and then placed at room temperature for 30 minutes away from light.
# c) The chemiluminescence signal value was read with Envision instrument.
# (§5) The IC50 was calculated using GraphPad Prism 8 software and the IC50 (half inhibitory concentration) of the compounds was obtained using the following non-linear fitting formula: […]
# SNU354 = assay: Cytotoxicity on hepatocellular carcinoma cell line SNU354; format: cell-based; conditions: for IC50: Homo sapiens, SNU-354
# Method: as §1, §2, §3, §4, §5
# (§6) Using the same experimental methods as described above, Compounds A, B and C were further tested for cytotoxicity against different hepatocellular carcinoma (HCC) cell lines SNU354, SNU886, MHCC97H and huH-1, and the results were shown in Table 2 below: […]
# SNU886 = assay: Cytotoxicity on hepatocellular carcinoma cell line SNU886; format: cell-based; conditions: for IC50: SNU-886
# Method: as §1, §2, §3, §4, §5, §6
# MHCC97H = assay: Cytotoxicity on hepatocellular carcinoma cell line MHCC97H; format: cell-based; conditions: for IC50: Homo sapiens
# Method: as §1, §2, §3, §4, §5, §6
# huH-1 = assay: Cytotoxicity on hepatocellular carcinoma cell line huH-1; format: cell-based; conditions: for IC50: Homo sapiens, HuH-1
# Method: as §1, §2, §3, §4, §5, §6
# H460 cancer cells = assay: H460 proliferation in the presence or absence of AKR1C3 inhibitor AST-3021 (Alamar Blue); format: cell-based, human; conditions: for IC50: Homo sapiens, NCI-H460, H460, 2 hours exposure; for Fold: IC50 with AST-3021 over IC50 without
# Method: The tested compound was then added. The compound was dissolved in 100% DMSO at 200 times of the desired final test concentration. When the medicament was added, the compound was further diluted to 4 times of the desired final test concentration by using the complete medium. 50 μL of aliquots of the compound with specific concentration were added to the microwells containing 150 μL of medium, and then the final medicament concentration was obtained. […] The medicament was then washed. […] After the incubation was finished, the Alamar Blue was used to analyze and quantify the living cells.
# [1] = test system: HuPrime model LI6280 human liver cancer; assay: In vivo pharmacodynamics, liver cancer LI6280 PDX model; design: species or system BALB/c nude mice; conditions: for Tumor volume: 30 mg/kg p.o.
# Method: Experiment Instruction: BALB/c nude mice were subcutaneously inoculated with HuPrime® model LI6280 tumour blocks to establish a subcutaneous transplantation tumour model of human liver cancer. […] The efficacy was evaluated according to the relative tumor inhibition rate TGI (%), and the safety was evaluated according to the change in body weight and the death of the animals.
# [2] = test system: human liver cancer LI6652; assay: In vivo pharmacodynamics, liver cancer LI6652 subcutaneous xenograft PDX model; design: species or system BALB/c nude mice; conditions: for Tumor volume: 30 mg/kg p.o.
# Method: The pharmacodynamic analysis of each group in liver cancer LI6652 model was performed on Day 31 after administration, and the results were shown in Table 12.
# [3] = test system: HuPrime model LI6643 human liver cancer; assay: In vivo pharmacodynamics, liver cancer LI6643 PDX model (Compound A, Sorafenib, AST-3424; section 4.7); design: species or system BALB/c nude mice; conditions: for Tumor volume: 30 mg/kg p.o.
# Method: Experiment Instruction: BALB/c nude mice were subcutaneously inoculated with HuPrime® model LI6643 tumor blocks to establish a subcutaneous grafted tumor model of human liver cancer. […] The efficacy was evaluated according to the relative tumor inhibition rate TGI (%), and the safety was evaluated according to the change in body weight and the death of the animals.
# [4] = test system: HuPrime model LI6643 human liver cancer; assay: In vivo pharmacodynamics, liver cancer LI6643 PDX model (Compound A, Sorafenib; section 4.8); design: species or system BALB/c nude mice; conditions: for Tumor volume: 20-30 mg/kg p.o.
# Method: Experiment Instruction: BALB/c nude mice were subcutaneously inoculated with HuPrime® model LI6643 tumor blocks to establish a subcutaneous transplantation tumor model of human liver cancer. […] The efficacy was evaluated according to the relative tumor inhibition rate TGI (%), and the safety was evaluated according to the change in body weight and the death of the animals.
# [5] = test system: HuPrime model LI1005 human liver cancer; assay: In vivo pharmacodynamics, liver cancer LI1005 PDX model; design: species or system BALB/c nude mice; conditions: for Tumor volume: 30 mg/kg p.o.
# [6] = test system: human liver cancer HepG2 cells; assay: In vivo pharmacodynamics, liver cancer HepG2 CDX model; design: species or system BALB/c nude mice
# Method: Experiment Instruction: BALB/c nude mice were subcutaneously inoculated with human liver cancer HepG2 cells to establish a subcutaneous transplantation tumor model of human liver cancer. […] The efficacy was evaluated according to the relative tumor inhibition rate TGI (%), and the safety was evaluated according to the change in body weight and the death of the animals.
# [7] = test system: HuPrime model LI6664 human liver cancer; assay: In vivo pharmacodynamics, liver cancer LI6664 PDX model; design: species or system BALB/c nude mice; conditions: for Size of tumor volume: Group2, Sorafenib 30 mg/kg
# Method: Experiment Instruction: BALB/c nude mice were subcutaneously inoculated with HuPrime® model LI6664 tumor blocks to establish a subcutaneous transplantation tumor model of human liver cancer. […] Among them, 7.5% anhydrous ethanol+7.5% polyoxyethylene (35) castor oil+85% glucose injection D5W (pH 7.4) vehicle control group was administered by tail vein once a week for 3 consecutive weeks; test drug AST-3424 0.3 mg/kg and 1 mg/kg groups were administered by tail vein injection once a day for 5 consecutive days, followed by 2 days off, followed by 2 weeks off, and then continuously administered for 5 consecutive days; the test drug AST-3424 1.25 mg/kg group was administered by tail vein injection once a week for 2 consecutive weeks, followed by one week off, and then continuously administered for 2 consecutive weeks, Compound A 0.5 mg/kg, 1.5 mg/kg, and 4.5 mg/kg groups were administered by tail vein injection once a week for three consecutive weeks, followed by 1 week off, and then administered for three consecutive weeks. […] The efficacy was evaluated according to the relative tumor inhibition rate TGI (%), and the safety was evaluated according to the change in body weight and the death of the animals.
# [8] = test system: human liver cancer LI6652; assay: In vivo pharmacodynamics, liver cancer LI6652 subcutaneous xenograft PDX model; design: species or system BALB/c nude mice; conditions: 30 mg/kg p.o. QDx21; Day 28
# [9] = no AKR1C3 inhibitor, read-out: IC50 Without the addition of AST-3021
# [10] = 20-30 mg/kg p.o. QD (30 mg/kg day0-day11, 20 mg/kg day 12-day20), Day 35
# [11] = 30 mg/kg, QDx21 Days, p.o., Day 53
compound,measurement,setting,value
O=[N+]([O-])c1ccc([C@H](OP(=O)(N2CC2)N2CC2)C(F)(F)F)cc1Oc1ccc(-c2ccc(F)cc2)c(F)c1 [B],IC50,H460 cells,8.77 nM
same,IC50,SNU354,754 nM
same,IC50,SNU886,378 nM
same,IC50,MHCC97H,242 nM
same,IC50,huH-1,258 nM
same,IC50,H460 cancer cells; [9],3.73 nM
same,Fold,H460 cancer cells,513.28
O=[N+]([O-])c1ccc([C@@H](OP(=O)(N2CC2)N2CC2)C(F)(F)F)cc1Oc1ccc(-c2ccc(F)cc2)c(F)c1 [C],IC50,H460 cells,23.4 nM
same,IC50,SNU354,1520 nM
same,ratio C/B,SNU354; IC50 ratio,2.01
same,ratio C/B,SNU886; IC50 ratio,2.23
same,IC50,SNU886,843 nM
same,IC50,MHCC97H,563 nM
same,ratio C/B,MHCC97H; IC50 ratio,2.32
same,IC50,huH-1,269 nM
same,ratio C/B,"huH-1; IC50 ratio, huH-1",1.49
same,IC50,"H460 cancer cells; AST-3021 3 micromolar, read-out: IC50 With the addition of AST-3021",3330 nM
same,IC50,H460 cancer cells; [9],7.66 nM
same,Fold,H460 cancer cells,434.76
"CNC(=O)c1cc(Oc2ccc(NC(=O)Nc3ccc(Cl)c(C(F)(F)F)c3)cc2)ccn1 [Sorafenib, reference compound]",T/C (%),"[1]; 30 mg/kg p.o. QDx21, Day 17",49.65%
same,TGI (%),"[1]; 30 mg/kg p.o. QDx21, Day 17",50.35%
same,Tumor volume (x ± S),"[1]; 30 mg/kg p.o. QDx21, Day 17, in mm³ (unit assumed)",1076.45 ± 230.21
same,Tumor volume,[1]; Day 0,103.93 mm^3
same,Tumor volume,[1]; Day 3,168.82 mm^3
same,Tumor volume,[1]; Day 7,269.83 mm^3
same,Tumor volume,[1]; Day 10,439.29 mm^3
same,Tumor volume,[1]; Day 14,731.99 mm^3
same,Tumor volume,[1]; Day 17,1076.45 mm^3
same,Tumor volume,[1]; Day 21,1241.19 mm^3
same,Tumor volume,[1]; Day 24,1504.89 mm^3
same,Tumor volume,[1]; Day 28,2218.52 mm^3
same,Tumor volume,[1]; Day 31,2313.01 mm^3
same,T/C (%),"[2]; 30 mg/kg p.o. QDx21, Day 28",17.04%
same,TGI (%),"[2]; 30 mg/kg p.o. QDx21, Day 28",82.96%
same,Tumor volume,[2]; Day 0,125.84 mm^3
same,Tumor volume,[2]; Day 3,146.95 mm^3
same,Tumor volume,[2]; Day 7,196.51 mm^3
same,Tumor volume,[2]; Day 10,212.41 mm^3
same,Tumor volume,[2]; Day 14,217.19 mm^3
same,Tumor volume,[2]; Day 17,191.72 mm^3
same,Tumor volume,[2]; Day 21,178.69 mm^3
same,Tumor volume,[2]; Day 24,209.42 mm^3
same,Tumor volume,[2]; Day 28,315.93 mm^3
same,Tumor volume,[2]; Day 31,441.67 mm^3
same,T/C (%),"[3]; 30 mg/kg p.o. QDx21, Day 21",37.88%
same,TGI (%),"[3]; 30 mg/kg p.o. QDx21, Day 21",62.12%
same,Tumor volume (x ± S),"[3]; 30 mg/kg p.o. QDx21, Day 21, in mm³",214.75 ± 31.53
same,Tumor volume,[3]; Day 0,124.67 mm^3
same,Tumor volume,[3]; Day 3,170.03 mm^3
same,Tumor volume,[3]; Day 7,185.13 mm^3
same,Tumor volume,[3]; Day 10,193.95 mm^3
same,Tumor volume,[3]; Day 14,189.87 mm^3
same,Tumor volume,[3]; Day 17,171.25 mm^3
same,Tumor volume,[3]; Day 21,214.75 mm^3
same,Tumor volume,[3]; Day 24,238.48 mm^3
same,Tumor volume,[3]; Day 28,309.08 mm^3
same,T/C (%),[4]; [10],21.81%
same,Tumor volume (x ± S),[4]; [10],392.20 ± 64.05
same,Tumor volume,[4]; Day 0,126.16 mm^3
same,Tumor volume,[4]; Day 4,163.51 mm^3
same,Tumor volume,[4]; Day 7,205.85 mm^3
same,Tumor volume,[4]; Day 11,235.50 mm^3
same,Tumor volume,[4]; Day 14,279.42 mm^3
same,Tumor volume,[4]; Day 18,291.41 mm^3
same,Tumor volume,[4]; Day 21,287.76 mm^3
same,Tumor volume,[4]; Day 25,326.85 mm^3
same,Tumor volume,[4]; Day 28,346.56 mm^3
same,Tumor volume,[4]; Day 32,385.09 mm^3
same,Tumor volume,[4]; Day 35,392.20 mm^3
same,Tumor volume,[4]; Day 39,431.87 mm^3
same,Tumor volume,[4]; Day 42,451.48 mm^3
same,Tumor volume,[4]; Day 46,521.44 mm^3
same,Tumor volume,[4]; Day 49,585.72 mm^3
same,Tumor volume,[4]; Day 53,622.46 mm^3
same,T/C (%),"[5]; 30 mg/kg p.o. QDx21, Day 35",28.26%
same,TGI (%),"[5]; 30 mg/kg p.o. QDx21, Day 35",71.74%
same,Tumor volume (x ± S),"[5]; 30 mg/kg p.o. QDx21, Day 35, in mm³ (unit assumed)",294.09 ± 60.93
same,Tumor volume,[5]; Day 0,102.89 mm^3
same,Tumor volume,[5]; Day 3,121.64 mm^3
same,Tumor volume,[5]; Day 7,136.21 mm^3
same,Tumor volume,[5]; Day 10,136.21 mm^3
same,Tumor volume,[5]; Day 14,136.89 mm^3
same,Tumor volume,[5]; Day 17,140.09 mm^3
same,Tumor volume,[5]; Day 21,142.56 mm^3
same,Tumor volume,[5]; Day 24,161.17 mm^3
same,Tumor volume,[5]; Day 28,200.97 mm^3
same,Tumor volume,[5]; Day 31,227.65 mm^3
same,Tumor volume,[5]; Day 35,294.09 mm^3
same,weight loss,[6]; 30 mg/kg p.o.,caused significant weight loss
same,Tumor volume,"[6]; 30 mg/kg p.o., Day 19",189.76 mm^3
same,Tumor volume,"[6]; 30 mg/kg p.o., Day 22",291.62 mm^3
same,Tumor volume,"[6]; 30 mg/kg p.o., Day 24",311.64 mm^3
same,Tumor volume,"[6]; 30 mg/kg p.o., Day 27",340.46 mm^3
same,Tumor volume,"[6]; 30 mg/kg p.o., Day 31",398.84 mm^3
same,Tumor volume,"[6]; 30 mg/kg p.o., Day 36",491.06 mm^3
same,Tumor volume,"[6]; 30 mg/kg p.o., Day 39",509.41 mm^3
same,Tumor volume,"[6]; 30 mg/kg p.o., Day 42",657.51 mm^3
same,Tumor volume,"[6]; 30 mg/kg p.o., Day 46",816.63 mm^3
same,Tumor volume,"[6]; 30 mg/kg p.o., Day 49",1012.20 mm^3
same,Tumor volume,"[6]; 30 mg/kg p.o., Day 53",1484.78 mm^3
same,T/C (%),[6]; [11],65.95%
same,TGI (%),[6]; [11],34.05%
same,Tumor volume (x ± S),"[6]; 30 mg/kg, QDx21 Days, p.o., Day 53, in mm³ (unit assumed)",1484.78 ± 304.89
same,Size of tumor volume,[7]; Day 0,107.93 mm^3
same,Size of tumor volume,[7]; Day 4,170.15 mm^3
same,Size of tumor volume,[7]; Day 7,197.93 mm^3
same,Size of tumor volume,[7]; Day 11,218.34 mm^3
same,Size of tumor volume,[7]; Day 14,321.83 mm^3
same,Size of tumor volume,[7]; Day 18,391.52 mm^3
same,Size of tumor volume,[7]; Day 21,481.85 mm^3
same,Size of tumor volume,[7]; Day 25,730.68 mm^3
same,Size of tumor volume,[7]; Day 28,1003.42 mm^3
same,Size of tumor volume,[7]; Day 32,1333.07 mm^3
same,Size of tumor volume,[7]; Day 35,1595.00 mm^3
same,Size of tumor volume,[7]; Day 39,2102.94 mm^3
same,Size of tumor volume,[7]; Day 42,2729.04 mm^3
same,Size of tumor volume,[7]; Day 46,2892.15 mm^3
same,Size of tumor volume,[7]; Day 49,2600.00 mm^3
same,T/C (%),"[7]; Sorafenib 30 mg/kg, Day 28",71.01%
same,TGI (%),"[7]; Sorafenib 30 mg/kg, Day 28",28.99%
same,Tumor volume (x ± S),"[7]; Sorafenib 30 mg/kg, Day 28, mean ± standard error, in mm³ (unit assumed)",1003.42 ± 128.88
same,weight loss,"[7]; treatment period, tested doses",weight loss in individual mice
same,Tumor volume (x ± S),[8],315.93 ± 81.35

# Source: patent publication US20260159536A1, “AKR1C3-ACTIVATED DNA ALKYLATING AGENT, AND MEDICAL APPLICATION THEREOF” (ASCENTAWITS PHARMACEUTICALS, LTD., priority 2021, published 2026)
